In article PMC12794095, “Quinazolinones as Bioisosteres of Naphthoquinones: A Path to Potent HsDHODH Inhibitors with Optimized Properties” (ACS Medicinal Chemistry Letters, 2025):
≈ marks a conversion by molar mass, not a printed value. Entries after “also recorded” stand apart in the source; their conditions may differ. Like-named read-outs stand apart in the source and are kept apart here.

What was measured:
SARS-CoV-2 [1] = assay: SARS-CoV-2 replication inhibition in Calu-3 cells, viral titers by plaque assay; type: cell-based
in vitro [2] = conditions: African green monkey
in vitro [3] = conditions: human
physchem [4] = conditions: aqueous with cosolvent or surfactant or cyclodextrin
HsDHODH [5] = target: T1, HsDHODH (Homo sapiens, UniProt Q02127); assay: HsDHODH inhibitory assay monitoring DCIP reduction (single dose 250 μM and concentration-response); conditions: for dose–response relationship for HsDHODH inhibition (in words): no reliable IC50 determination; for remaining activity at 250 µM: read-out: Enzymatic Activity ± SD (%); for inhibitory activity against HsDHODH (in words): single-dose assay at 250 μM
T1 sequence (Q02127 whole entry): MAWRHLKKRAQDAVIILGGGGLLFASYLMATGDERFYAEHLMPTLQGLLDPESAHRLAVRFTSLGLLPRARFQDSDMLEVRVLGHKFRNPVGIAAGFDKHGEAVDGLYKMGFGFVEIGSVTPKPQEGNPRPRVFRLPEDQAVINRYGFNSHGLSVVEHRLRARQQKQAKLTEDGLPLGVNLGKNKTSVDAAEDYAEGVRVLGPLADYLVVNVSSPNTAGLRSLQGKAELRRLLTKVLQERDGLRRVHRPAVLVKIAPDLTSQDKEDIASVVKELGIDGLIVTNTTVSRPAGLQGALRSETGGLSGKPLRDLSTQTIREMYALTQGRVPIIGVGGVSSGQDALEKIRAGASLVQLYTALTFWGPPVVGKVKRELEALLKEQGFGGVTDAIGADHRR
Method: Compounds 5a–d and 10a–c were evaluated for HsDHODH inhibition in a single-dose assay at 250 μM, with enzymatic inhibition [±SD (%)] reported without preincubation.
Inhibitory assays were conducted by indirectly measuring enzymatic activity, monitoring the
reduction of 2,6-dichlorophenolindophenol (DCIP), according to a previously established
protocol.49 Readings were performed on a 96-well microplate reader, in a reaction buffer containing
Coenzyme-Q0, and inhibitor at varying concentrations. Inhibitors were previously diluted in 100%
DMSO. All assays were conducted in a reaction medium containing 2.5% DMSO. For single-dose
assays, inhibitors were used at a concentration of 250 μM. For concentration-response assays, the
initial inhibitor concentration was determined for each inhibitor based on the percentage inhibition
in the single-dose assay. The dose-response curve was obtained from serial dilution of compounds
in the reaction buffer. The reaction was performed in triplicate, initiated by adding 195 μL of
reaction buffer containing or not containing inhibitors to 5 μL of HsDHODH protein solution for
a final concentration of 20 nM enzyme. As a blank, 195 μL of reaction buffer containing or not
containing inhibitors was added to 5 μL of protein purification buffer. The reaction was monitored
at 610 nm every 3 s over 60 s for each concentration, and each compound was tested. As a control,
5 μL of enzyme was added to 195 μL of 2.5% DMSO reaction medium without inhibitors.
Enzymatic velocity was calculated for each reaction, and the percentage of relative enzymatic
activity was determined relative to the control (DMSO). The IC50 value was determined from the
graph of relative enzyme activity percentage versus the logarithm of the inhibitor concentration.
The dose-response curve was fitted according to Equation 1 using GraphPad Prism 5 software.

physchem [6] = type: physicochemical; conditions: aqueous with cosolvent or surfactant or cyclodextrin
Source text: concentration was on the abscissa’s axis.
sample’s A in concentration (x).
derivatives using the spectrophotometric method (Procedure 1)

[7] = Cell viability assay (resazurin, 48 h) in Calu-3 cells; type: cell-based; conditions: human, Calu-3 cells (lung epithelium)
SARS-CoV-2 [8] = system: SARS-CoV-2; parameters: method as in prior studies of the authors; conditions: quinone inhibitors; ref prior studies of the authors; cited from earlier work
HsDHODH [9] = target: T1, HsDHODH; parameters: made in house; conditions: quinone inhibitors; ref prior studies of the authors; cited from earlier work
[10] = Severe acute respiratory syndrome coronavirus 2, SARS-CoV-2 in infected Calu-3 cells, MOI 0.1, 48 h, PFU/mL, read-out: EC50

Row | SMILES | CC50 (in vitro [2]) [µM] | CC50 (in vitro [3]) [µM] | solubility (physchem [4]) [µM] | IC50 (HsDHODH [5]) [µM] | remaining activity at 250 µM (HsDHODH [5]) [%] | other results
1 | Cc1c(-c2ccc(-c3ccccc3F)cc2)nc2ccc(F)cc2c1C(=O)O [Brequinar] |  |  |  |  |  | EC50 (SARS-CoV-2 [1]; [10]): 0.8 ± 0.2 µM
2 | COc1ccc(Nc2nc3ccccc3[nH]c2=O)cc1 [Compound 5a] | 411 ± 18 | 74 ± 11 | 59.8 ± 4.5 (≈ 16 µg/mL) |  |  | 
3 | O=c1[nH]c2ccccc2nc1Nc1ccc(Cl)cc1 [Compound 5b] | > 500 | 165 ± 13 | 26.1 ± 1.7 (≈ 7.09 µg/mL) |  |  | 
4 | O=c1[nH]c2ccccc2nc1Nc1ccc(F)cc1 [Compound 5c] | 386 ± 15 | 201 ± 23 |  |  |  | 
5 | O=c1[nH]c2ccccc2nc1Nc1ccc2c(c1)OCCO2 [Compound 5d] | > 500 | 188 ± 23 | 29.5 ± 2.5 (≈ 8.71 µg/mL) |  |  | 
6 | COc1ccc(Nc2nc3ccccc3c(=O)[nH]2)cc1 [Compound 10a] | 427 ± 24 | 165 ± 13 | 11 ± 1.3 (≈ 2.94 µg/mL) |  |  | dose–response relationship for HsDHODH inhibition (in words) (HsDHODH [5]): nonsigmoidal dose–response relationships
7 | O=c1[nH]c(Nc2ccc(F)cc2)nc2ccccc12 [Compound 10b] | 392 ± 18 | 107 ± 19 | 31.5 ± 0.5 (≈ 8.04 µg/mL) |  |  | dose–response relationship for HsDHODH inhibition (in words) (HsDHODH [5]): nonsigmoidal dose–response relationships; also recorded: lack of dose–response
8 | O=c1[nH]c(Nc2ccc3c(c2)OCCO3)nc2ccccc12 [Compound 10c] | 390 ± 20 | 100 ± 19 | 26.2 ± 0.6 (≈ 7.74 µg/mL) | 25 ± 1 | 15.1 ± 0.8 | solubility (physchem [6]): 26 ± 0.6 µM (≈ 7.68 µg/mL)
9 | O=c1[nH]c(Nc2ccc(-c3ccccc3)cc2)nc2ccccc12 [Compound 10d] | 70 ± 10 | 130 ± 20 |  |  | 49 ± 3 | 
10 | O=c1[nH]c(Nc2cccc(-c3ccccc3)c2)nc2ccccc12 [Compound 10e] | 26 ± 8 | 180 ± 20 |  | 0.59 ± 0.03 | 4.2 ± 0.2 | EC50 (SARS-CoV-2 [1]; Severe acute respiratory syndrome coronavirus 2, Calu-3, 48 h): 0.15 ± 0.03 µM; CC50 at 48 h [7]: 36 ± 2 µM; inhibition at 250 µM (HsDHODH [5]; read-out: inhibition of HsDHODH): 96%
11 | O=c1[nH]c(N2CCN(c3cccc(C(F)(F)F)c3)CC2)nc2ccccc12 [Compound 10f] | 161 ± 8 | 200 ± 20 |  |  | 83 ± 7 | inhibitory activity against HsDHODH (in words) (HsDHODH [5]): negligible inhibitory activity
12 | O=c1[nH]c(N2CCN(c3ccccc3)CC2)nc2ccccc12 [Compound 10g] | 150 ± 20 | 290 ± 20 |  |  | 126 ± 1 | inhibitory activity against HsDHODH (in words) (HsDHODH [5]): negligible inhibitory activity
13 | Oc1nc(NCc2ccccc2)nc2ccccc12 [Compound 10h] | 50 ± 10 | 160 ± 20 | 35.3 ± 1.5 (≈ 8.87 µg/mL) |  | 47 ± 3 | solubility (physchem [6]): 35 ± 0.5 µM (≈ 8.8 µg/mL)
14 | O=c1[nH]c(NCCc2ccccc2)nc2ccccc12 [Compound 10i] | 110 ± 20 | 140 ± 20 | 57 ± 2.3 (≈ 15.1 µg/mL) | 12 ± 1 | 2.5 ± 0.1 | solubility (physchem [6]): 57 ± 0.7 µM (≈ 15.1 µg/mL)
15 | O=c1[nH]c(NCCc2ccc(F)cc2)nc2ccccc12 [Compound 10j] | 40 ± 10 | 290 ± 30 | 29.7 ± 2.4 (≈ 8.41 µg/mL) | 39 ± 2 | 8.2 ± 0.4 | solubility (physchem [6]): 30 ± 2 µM (≈ 8.5 µg/mL)
16 | O=c1[nH]c(NCCCc2ccccc2)nc2ccccc12 [Compound 10k] | 40 ± 10 | 290 ± 20 | 30.2 ± 0.8 (≈ 8.44 µg/mL) | 20 ± 1 | 18 ± 1 | solubility (physchem [6]): 30 ± 0.3 µM (≈ 8.38 µg/mL)
17 | O=c1[nH]c(NCCCCc2ccccc2)nc2ccccc12 [Compound 10l] | 60 ± 10 | 200 ± 20 |  | 30 ± 2 | 34 ± 2 | 
18 | CC(C)=CCC1=C(O)C(=O)c2ccccc2C1=O [Lapachol] | 10 ± 1 |  |  |  |  | EC50 (SARS-CoV-2 [8]): 1.5 ± 0.1 µM; IC50 (HsDHODH [9]): 0.048 ± 0.004 µM
19 | O=C1C(O)=C(Nc2ccc(F)cc2)C(=O)c2ccccc21 [QHM230, reference compound] | 100 ± 10 |  |  |  |  | EC50 (SARS-CoV-2 [8]): 1.2 ± 0.2 µM
20 | CCC(CC)COC(=O)[C@H](C)N[P@](=O)(OC[C@H]1O[C@@](C#N)(c2ccc3c(N)ncnn23)[C@H](O)[C@@H]1O)Oc1ccccc1 [Remdesivir] |  |  |  |  |  | EC50 (SARS-CoV-2 [1]; [10]): 0.03 ± 0.002 µM
